According to PubChem BioAssay (NCI):
Where “and” joins values, the source holds several entries; their conditions need not be identical. Identical values can stand only once.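 Cells were grown in 96-well plates and exposed to each compound for 48 hours at five concentrations; endpoints were interpolated linearly between bracketing concentrations, or set to the highest concentration if not reached. At the GI50, growth is halved. TGI: concentration producing complete growth inhibition.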

Legend:
Test in all cases: NCI anticancer screen, dose series, 48 h
[1] = system: 786-0 renal
[2] = system: HCT-116 colon
[3] = system: HOP-92 NSCLC
[4] = system: MCF7 breast
[5] = system: MDA-MB-435
[6] = system: NCI-H522 lung
[7] = system: NCI/ADR-RES ovarian
[8] = system: RXF 393 renal
[9] = system: SNB-75 CNS
[10] = system: U251 CNS

SMILES | GI50 [1] | TGI [1] | GI50 [2] | TGI [2] [µM] | GI50 [3] [µM] | TGI [3] | GI50 [4] | TGI [4] [µM] | GI50 [5] | TGI [5] | GI50 [6] [µM] | TGI [6] [µM] | GI50 [7] | TGI [7] [µM] | GI50 [8] [µM] | TGI [8] [µM] | GI50 [9] [µM] | TGI [9] [µM] | GI50 [10] [µM] | TGI [10]
CC1(C)CCc2c(c(N=Nc3ccccc3F)c3ccccc3c2O)O1 | 26.1 µM | 60.3 µM | 27.7 µM | > 100 | 92.6 | > 100 µM | > 100 µM | > 100 | > 100 µM | > 100 µM | 38.6 | > 100 | 20.1 µM | 47.1 | 79 | > 100 | 20.4 | 53.3 | 19.4 | 37 µM
C#Cc1cccc(NC(=O)c2cccc(NC(=O)CCl)c2)c1 | 14.2 µM | 28.1 µM | 7.98 µM | 44.6 | 14.7 | 34.6 µM | 12.8 µM | > 82.5 | 32.3 µM | > 82.5 µM | 12.7 | 33.4 | 17.3 µM | 53.1 | 12.7 | 29.8 | 12.3 | 75.5 | 12.1 | 28.4 µM
O=C(Nc1cccc(C(F)(F)F)c1)c1ccc(NC2=C(Cl)C(=O)N(Cc3ccccc3)C2=O)cc1 | 12.1 µM | 24.5 µM | 2.81 µM | 9.22 | 3.93 | 14.2 µM | 2.02 µM | 4.54 | 6.92 µM | 20.5 µM | 3.02 | 8.29 | 10.8 µM | 25.4 | 29.4 | 64.8 | 23.1 | 51.4 | 13.7 | 27.1 µM
O=S(=O)(O)n1ccnc1 (tested in a mixture with another compound) |  | > 100 µM |  | > 100 |  | > 100 µM |  | > 100 |  | > 100 µM |  | > 100 |  | > 100 |  | > 100 |  | > 100 |  | > 100 µM
FC(F)(F)c1cc(NC(=S)N2c3ccccc3-n3cccc3C2c2cccnc2)cc(C(F)(F)F)c1 (stereo unspecified) | 5.31 µM | 18.7 µM | 12.4 µM | 40.3 | 2.93 | 7.87 µM | 12.9 µM | 32 | 6.57 µM | 22.1 µM | 3.68 | 13.7 | 4.18 µM | 18.2 | 11 | 35.8 | 7.07 | 22.7 | 4.2 | 14.8 µM
Fc1ccc(-c2ncn(CCCN3CCOCC3)c2-c2ccncc2)cc1 | > 25 µM | > 25 µM | > 25 µM | > 25 | > 25 | > 25 µM | > 25 µM | > 25 | > 25 µM | > 25 µM | > 25 | > 25 | > 25 µM | > 25 | > 25 | > 25 | > 25 | > 25 | > 25 | > 25 µM
COc1ccc(-c2cc(-c3ccc(OC)cc3)nc(NCCCNc3ccnc4cc(Cl)ccc34)n2)cc1 | 1.62 µM | 2.99 µM | 1.45 µM | 2.76 | 1.24 | 2.64 µM | 1.65 µM | 3.5 | 1.73 µM | 3.18 µM | 1.92 | 3.81 | 1.62 µM | 3.28 | 1.32 | 2.74 | 11.8 | 24.5 | 1.6 | 3 µM
O=C(O)CN1C(=O)CN=C(c2ccccn2)c2cc(Cl)ccc21 |  | > 100 µM |  | > 100 |  | > 100 µM |  | > 100 |  | > 100 µM |  | > 100 |  | > 100 |  | > 100 |  | > 100 |  | > 100 µM
COc1ccc(CNCCCN2C(=O)c3ccc4c5c(ccc(c35)C2=O)C(=O)N(CCCNCc2ccc(OC)c(OC)c2OC)C4=O)c(OC)c1OC | 0.333 µM | 1.02 µM | 0.0773 µM | 0.169 | 0.108 | 0.328 µM | 0.0811 µM | 0.219 | 0.0925 µM | 0.177 µM | 0.0804 | 0.163 | 1.01 µM | 3.01 | 0.0823 | 0.176 | 0.139 | 0.442 | 0.0879 | 0.174 µM
COc1ccc(C2CC(c3ccc(OC)cc3O)=NN2c2ccc(S(N)(=O)=O)cc2)cc1 (stereo unspecified) | 18.4 µM | > 100 µM | 4.47 µM | 69.3 | 3.27 | 32.8 µM | 4.11 µM | > 100 | 6.56 µM | > 100 µM | 15.5 | > 100 | 8.09 µM | > 100 | 25.6 | > 100 | 20.8 | > 100 | 6.42 | > 100 µM
CCN(CC)CCn1c(=O)c2cc(OC)c(OC)cc2c2ccc3cc4c(cc3c21)OCO4 | 0.479 µM | 13.4 µM | 0.377 µM | 6.2 | 0.49 | > 50 µM | 0.0607 µM | 24.8 | 0.795 µM | 20.9 µM | 0.151 | 21 | 0.42 µM | 43.9 | 0.448 | 17.2 | 0.305 | 15.4 | 0.201 | 18.6 µM
COc1ccccc1NC(=O)CC(=O)n1nc(C)c(N=Nc2ccccc2Cl)c1C |  | > 100 µM |  | > 100 |  | > 100 µM |  | > 100 |  | > 100 µM |  | > 100 |  | > 100 |  | > 100 |  | 57.2 |  | > 44.2 µM
COc1c(C)c(OC)c(C(=O)CC(C)C)c(OC)c1C |  | > 100 µM |  | > 100 |  | > 100 µM |  | > 100 |  | > 100 µM |  | > 100 |  | > 100 |  | > 100 |  |  |  | > 100 µM
CN[C@@H](Cc1cccc2ccccc12)C(=O)N[C@@H](CC(C)C)B(O)O | 0.037 µM | 0.18 µM and 0.0671 µM | 0.0118 µM | 0.0285 | 0.0178 | 0.0395 µM | 0.00637 µM |  | 0.00425 µM | 0.0147 µM |  | < 0.0103 | 0.0412 µM | 0.197 | 0.018 | 0.0353 | 0.0227 | 0.0617 | 0.0303 | 0.119 µM and 0.0438 µM
CC[C@H]1CCC/C=C/[C@@H]2C[C@H](O)C[C@H]2[C@H](O)/C=C/C(=O)O1 | 0.0204 µM | 0.042 µM | 0.0328 µM | 0.119 | 0.157 | > 100 µM | 0.0266 µM | 0.102 | 0.0434 µM | > 100 µM | 0.211 | 0.634 | 0.0379 µM | > 45.3 | 0.016 | 0.0379 | < 0.0119 | > 100 | 0.0443 | > 100 µM
CCOC(=O)c1c(-c2ccc(OC)c(O)c2)c(C#N)c(=S)n(C2OC(COC(C)=O)C(OC(C)=O)C(OC(C)=O)C2OC(C)=O)c1-c1ccccc1 (stereo unspecified) | 35.1 µM and > 100 µM | > 100 µM | 35.7 µM and > 100 µM | > 100 |  | 87.9 µM and > 100 µM | 28.2 µM and > 100 µM | > 100 | 31.7 µM and 67.9 µM | 91.6 µM and > 100 µM |  | 45.7 | 48.6 µM and > 100 µM | > 100 |  | > 100 |  |  |  | > 100 µM
CCOC(=O)Nc1ccc2c(c1)C(=O)N(CC)c1ccccc1O2 | 0.434 µM | > 100 µM | 0.0829 µM | > 100 | 1.5 | > 100 µM | 0.139 µM | > 100 | 0.0311 µM | 0.11 µM | 0.0797 | 1.09 | 0.124 µM | > 100 | 0.0277 | 54.9 | 0.188 | > 100 | 0.106 | > 100 µM
NNc1nc2ccccc2o1 |  | > 100 µM |  | > 100 |  | > 100 µM |  | > 100 |  | > 100 µM |  | > 100 |  | > 100 |  | > 100 |  | > 100 |  | > 100 µM
CC(C)=Cc1cccc2[nH]c(O)c(N=Nc3ccc(S(N)(=O)=O)cc3)c12 | 9.07 µM | > 25 µM | 1.74 µM | > 14.3 | 6.57 | > 25 µM | 1.04 µM | > 25 | > 21.4 µM | > 25 µM | > 25 | > 25 | > 23.4 µM | > 25 | 0.987 | > 19.4 | > 8.54 | > 25 | 4.24 | > 25 µM
COc1cc2c(/C=C3/C(=O)Nc4ccc(O)cc43)c(Cl)n(Cc3cc(OC)c(OC)c(OC)c3)c2cc1C | 1.6 µM | > 29.3 µM | 2.18 µM | > 33.2 | 3.18 | 21.9 µM | 0.776 µM | 19.7 | 0.328 µM |  | 0.633 | 4.45 | 3.41 µM | > 100 | 1.37 | 6.4 | 1.61 | > 59.8 | 2.49 | > 28.3 µM
CC[C@]12C=CCN3CC[C@@]4(c5ccc(OC)cc5N(C)[C@H]4[C@@](O)(C(=O)OC)[C@@H]1OC(=O)CCC(=O)O[C@H]1CC[C@H]4[C@@H]5CC[C@H]6CC(=O)CC[C@]6(C)[C@H]5CC[C@]14C)[C@@H]32 | 1.97 µM | > 100 µM | 1.02 µM | 10.1 | 1.83 | 9.72 µM | 2.42 µM | > 100 | 2.89 µM | > 100 µM | 2.85 | 27 | 2.91 µM | > 100 | 2.31 | 6.73 | 3.3 | > 100 | 3.74 | 22.8 µM
O=C1OC(c2ccc(Cl)cc2)=N/C1=C\c1ccccc1 |  | > 100 µM |  | > 100 |  | > 100 µM |  | > 100 |  | > 100 µM |  | > 100 |  | > 100 |  | > 100 |  | > 100 |  | > 100 µM
CC1(C)N=c2cc3c(cc2N1c1ccc(Cl)cc1)=Nc1ccccc1N3c1ccc(Cl)cc1 | 9.66 µM | > 100 µM | 3.68 µM | > 100 | 1.57 | 6.59 µM | 2.41 µM | 23.4 | 12.1 µM | > 100 µM | 3.93 | 74.6 | 5.21 µM | > 100 | 1.75 | 5.77 | 2.45 | 71.6 | 8.03 | > 100 µM
CN(/N=C/c1ccccc1O)c1ccc2ccccc2n1 |  | 31.5 µM |  | > 100 |  | > 100 µM |  | 30.9 |  | > 100 µM |  | 80.9 |  | > 100 |  | 90 |  |  |  | 29.8 µM
O=C1c2cc3c(cc2-c2c1c1ccc(F)cc1c(=O)n2C[C@H](O)[C@H](O)[C@H](O)CO)OCO3 | 0.209 µM | 21.6 µM |  |  | 0.243 | 0.896 µM | 0.0259 µM | 0.215 | 0.174 µM | 0.409 µM | 0.0313 | 0.228 | 0.207 µM | 2.14 | 0.193 | 0.502 |  |  | 0.05 | 0.258 µM
CCn1c(SCC(=O)Nc2cc(C(F)(F)F)ccc2Cl)nc2ccccc2c1=O | 48.6 µM | > 100 µM | 17.4 µM | > 100 | 12.1 | 41.4 µM | 94.4 µM | > 100 | > 100 µM | > 100 µM |  |  | 32.8 µM | > 100 | 15.6 | 66.9 | 17.1 | 53.8 | 30.3 | > 100 µM
O=C(Nc1ccccc1Cl)c1ccc(NC2=C(Cl)C(=O)N(C3CCCCC3)C2=O)cc1 | 9.64 µM | 30.2 µM | 5.51 µM | 36.1 | 17.4 | 42.2 µM | 9.82 µM | 36 | 9.61 µM | 44.1 µM | 6.23 | 34.7 | 29.3 µM | 82.8 |  |  | 8.64 | 34.4 | 3 | 19.4 µM
